According to US9044388B2, “Dry eye treatment” (Ocular Research of Boston, Inc., priority 2005, dated 2015):

Columns and labels:
eye [1] = details: in vivo; cited from earlier work
[2] = result in words; cited from earlier work
eye [3] = experiment: Subjective sensation / stinging of emulsions and their surfactants on the eye; type: in vivo, human; details: higher concentration as sole primary surfactant
Protocol: The subjective sensation realized with both formulations was evaluated as comfortable, and without any form of adverse sensation.

ocular surface = experiment: Evaluation of comfort on the eye (sensation after one drop); type: in vivo, human; details: even in concentrations ≦0.10%
Protocol: The vehicle used for all formulations was Unisol 4, a buffered saline solution marketed by Alcon Laboratories, Fort Worth, Tex. Unisol 4 had previously been studied and found to be the most comfortable normal saline product for use on the ocular surface. It was therefore used as a vehicle for the test formulations, and was also used as a control. A drop of each of the 5 test formulations was placed on to the ocular surfaces of each subject, utilizing a 15 ml dropper container that delivered a drop of 40 μl to the ocular surface. […] The results obtained with 6 subjects, all of whom evaluated each of the test formulation on two different days are summarized in Table 3.

polyoxyethylene (40) stearate [Myrj-52]
ocular discomfort on increasing the concentration (eye [1]): significant stinging

CCCCCCCCCCCCCCCCCC(=O)OCC(O)CO (stereo not shown) [GMS, glycerol monostearate]
solubility [2]: oil soluble

CCCCCCCC/C=C\CCCCCCCC(=O)OCCOCC(OCCO)C1OCC(OCCO)C1OCCO (stereo not shown) [Polysorbate-80]
effect of higher surfactant concentration on the eye (eye [3]): led to stinging on the eye

sorbitan monolaurate [Span 20]
sting when applied to the eye and ocular surfaces (ocular surface): sting
